Source: article PMC10046377, “Inhibitors of the Oncogenic PA2G4-MYCN Protein-Protein Interface” (Cancers, 2023)
pIC50: −log10 of the molar value.

Columns and labels:
Kelly cells = experiment: Alamar Blue cell viability assay, Kelly; assay type: cell-based; conditions: Homo sapiens, MYCN amplified neuroblastoma cell line
From the text: (§1) The MYCN amplified neuroblastoma cell line SK-N-BE(2)-C was kindly provided by Professor June Biedler (Memorial Sloan Kettering Cancer Centre, New York, NY, USA), and Kelly was obtained from European Collection of Cell Cultures. The two normal lung fibroblast cell lines (MRC-5 and WI-38) were purchased from ATCC. SK-N-BE(2)-C shMYCN#2 doxycycline-inducible cell and Kelly shMYCN#2 doxycycline-inducible cell were custom-made by GenScript (Piscataway, NJ, USA). SK-N-BE(2)-C, SK-N-BE(2)-C shMYCN#2, and SHEP MYCN3 doxycycline-inducible cells were maintained in Dulbecco’s modified Eagle’s medium (DMEM) (Invitrogen, Life Technologies, Waltham, MA, USA) with 10% foetal calf serum (FCS). Kelly and Kelly shMYCN#2 doxycycline-inducible cell were cultured in Roswell Park Memorial Institute (RPMI) 1640 (Invitrogen, Life Technologies) with 10% FCS. MRC-5 and WI-38 were cultured in Alpha-MEM media (Invitrogen, Life Technologies) with 10% FCS. All cells were not cultured for more than 2 months. All used cell lines were authenticated by Cell Bank Australia (Westmead, NSW, Australia) as being free from mycoplasma, and cultured at 37 °C and 5% CO2 in a humidifier incubator.
(§2) Cell viability was determined by the Alamar Blue assay (75 mg resazurin, 12.5 mg methylene blue, 164.5 mg potassium hexacyanoferrate (III), 211 mg potassium hexacyanoferrate (II) trihydrate in 500 mL of phosphate buffered saline). After 6 h incubation with Alamar Blue, the change of fluorescence was measured by Victor 3 multilabel Plate Reader (Perkin Elmer Australia, Melburne, Australia) at an excitation wavelength of 560 nm and an emission wavelength of 590 nm.
(§3) We have shown that the PA2G4 protein increased the half-life of the oncoprotein MYCN through direct binding, and competitive chemical inhibition of this bond by WS6 reduced tumorigenicity both in vitro and in vivo [11]. […] Here, we explored the structure–activity relationship (SAR) of WS6 analogue compounds with the aim to increase efficacy and reduce toxicity. […] The in vitro cytotoxicity of these 14 compounds were measured by cell viability assays using Alamar Blue in MYCN amplified human neuroblastoma (SK-N-BE(2)-C and Kelly) cell lines compared to non-malignant (WI-38, MRC-5) myofibroblast cell lines (Figure 1B,C and Supplementary Figure S1A).

MRC-5 cells = experiment: Alamar Blue cell viability assay, MRC-5 non-malignant myofibroblasts; assay type: cell-based; conditions: Homo sapiens, MRC5
From the text: as §1, §2, §3

MYCN = experiment: Western blot of MYCN protein level; assay type: cell-based, human; conditions: Kelly and SK-N-BE(2)-C cells; #5333/#5338: 48 h, 10–30 μM
Method: (§4) Protein was extracted from cell pellets using RIPA buffer (Sigma) with 10% protease inhibitor (Sigma, Sydney, Australia). Quantification of proteins was conducted using Pierce BCA protein assay kit (Thermo Scientific), according to manufacturer’s instructions. A total of 30–50 μg protein samples were loaded onto Criterion TGX 10% precast gel (Bio-Rad) or NuPAGE™ 4–12% Mini Protein Gel (Invitrogen, Life technologies) and transferred to a nitrocellulose membrane (Bio-Rad). The membrane was blocked in 5% skim milk in Tris-buffered saline with Tween-20 (20 mM Tris-HCl (pH 7.6), 137 mM NaCl, 0.1% Tween-20) for an hour before incubation at 4 °C overnight with the following primary antibodies: mouse anti-MYCN(1:2000, Santa-Cruz, Cat# sc-53993), rabbit anti-PA2G4 (1:2000, Atlas Antibodies, Cat# HPA016484), rabbit anti-PARP (1:1000, Cell Signalling Technologies, Danvers, MA, USA, Cat# 9542), rabbit anti-Caspase-3 (1:500, Cell Signalling Technologies, Cat# 9662), mouse anti-Bcl-2 (1:1000, Cell Signalling Technologies, Cat# 15071), rabbit anti-Bax (1:1000, Cell Signalling Technologies, Cat# 2772), mouse anti-Vinculin (1:2000, Sigma, Cat# V9131), mouse anti-GAPDH (1:2000, Santa-cruz, Cat# sc-365062), rabbit anti-β-actin (1:5000, Sigma, Cat# SAB2100037), rabbit anti-GATA2 (1:1000, Cell Signalling Technologies, Cat# 4595), mouse anti-Flag/DYKDDDDK tag (1:1000, Cell Signalling Technologies, Cat# 8146). Anti-mouse or anti-rabbit horseradish peroxidase secondary antibodies (1:5000, Life technologies, Cat# 31430, 31460) were added and incubated for 2 h at room temperature. Immunoblots were visualised by Clarity ECL reagent (Bio-Rad) and ChemiDoc MP Imaging System (Bio-Rad). Quantification of protein expression was measured by Image Lab software (Bio-Rad) and normalised to loading control.
(§5) Next, we examined whether #5333 and #5338 treatment for 48 h affected the levels of WS6 target proteins, PA2G4, and MYCN in neuroblastoma cells. […] Cell viability was measured following #5333 and #5338 treatments for 48–72 h. […] Cell viability was measured following #5333, #5338, or WS6 treatments for 72 h.

WI-38 cells = experiment: Alamar Blue cell viability assay, WI-38 non-malignant myofibroblasts; assay type: cell-based; conditions: Homo sapiens, read-out: IC50 WI-36
From the text: as §1, §2, §3

[1] = test system: neuroblastoma cells (Kelly, SK-N-BE(2)-C) compared to non-malignant myofibroblasts (WI-38, MRC-5); experiment: Therapeutic window, neuroblastoma cells versus non-malignant myofibroblasts; assay type: cell-based, human; conditions: non-malignant myofibroblast IC50 versus neuroblastoma cell IC50
Method: as §2, §3

SK-N-BE(2)-C cells = experiment: Alamar Blue cell viability assay, SK-N-BE(2)-C; assay type: cell-based; conditions: Homo sapiens, MYCN amplified neuroblastoma cell line
From the text: as §1, §2, §3

PA2G4 = experiment: Western blot of PA2G4 protein level; assay type: cell-based, human; conditions: Kelly and SK-N-BE(2)-C cells; #5333/#5338: 48 h, seen more consistently at 30 μM, with the exception of #5333 in SK-N-BE(2)-C
Method: as §4, §5

| SMILES | pIC50 (Kelly cells) | pIC50 (MRC-5 cells) | MYCN protein levels (Western blot) (MYCN) | pIC50 (WI-38 cells) | Therapeutic window (fold difference) [1] [fold] | pIC50 (SK-N-BE(2)-C cells) | PA2G4 protein levels (Western blot) (PA2G4) |
| --- | --- | --- | --- | --- | --- | --- | --- |
| Cc1cccc(Oc2cc(N3CCC(C(=O)NCc4cccc(C(F)(F)F)c4)CC3)ncn2)c1C [#3567] | 4.54 | 4.10 | significantly reduced | 4.10 | 2.7 | 4.52 | significantly reduced |
| Cc1cccc(Oc2cc(N3CCC(C(=O)NCc4cccc(Br)c4)CC3)ncn2)c1C [#5333] | 4.54 | 4.00 | significantly reduced MYCN levels | 4.00 | 3.6 | 4.58 | Reductions in PA2G4 levels |
| Cc1cccc(Oc2cc(N3CCC(C(=O)N[C@@H](C)CCc4ccccc4)CC3)ncn2)c1C [#5338] | 4.52 | 4.00 | significantly reduced MYCN levels | 4.00 | 3.8 | 4.63 | Reductions in PA2G4 levels |
